Assay results published in ChEMBL document CHEMBL1159141, “Synthesis and biology of substituted 3-phenyl taxol analogues” (1994).

Tests used:
B16 = test: In vitro concentration which causes 50% inhibition of proliferation of B16 melanoma cells, activity relative to taxol (ED50=1); type: functional, Mus musculus
[1] = biological target: Tubulin alpha chain (Sus scrofa) (UniProt P02550); test: In vitro concentration which causes polymerization of 50% of the tubulin, activity relative to taxol (ED50=1); type: functional
Chain of Tubulin alpha chain (Sus scrofa) (P02550 whole entry, looked up): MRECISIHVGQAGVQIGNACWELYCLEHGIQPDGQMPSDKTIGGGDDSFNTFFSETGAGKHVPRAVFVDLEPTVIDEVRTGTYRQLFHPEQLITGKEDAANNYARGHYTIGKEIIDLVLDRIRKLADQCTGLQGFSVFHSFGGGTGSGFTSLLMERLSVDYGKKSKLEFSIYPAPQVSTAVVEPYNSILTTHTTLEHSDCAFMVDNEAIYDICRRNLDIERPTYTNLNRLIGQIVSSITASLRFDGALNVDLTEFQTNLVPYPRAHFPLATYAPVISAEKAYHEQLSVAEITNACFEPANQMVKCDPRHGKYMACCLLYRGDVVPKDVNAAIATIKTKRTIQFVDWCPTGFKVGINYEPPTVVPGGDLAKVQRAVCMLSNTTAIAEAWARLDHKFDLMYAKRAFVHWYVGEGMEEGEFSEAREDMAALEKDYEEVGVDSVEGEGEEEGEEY

HCT-116 = test: In vitro concentration which causes 50% inhibition against HCT116 cell line, activity relative to taxol (ED50=1); type: functional, Homo sapiens

Row | Compound | ED50 ratio (B16) | ED50 ratio [1] | ED50 ratio (HCT-116)
1 | COc1ccc([C@@H](NC(=O)c2ccccc2)[C@@H](O)C(=O)O[C@H]2C[C@@]3(O)[C@@H](OC(=O)c4ccccc4)[C@@H]4[C@]5(OC(C)=O)CO[C@@H]5C[C@H](O)[C@@]4(C)C(=O)[C@H](OC(C)=O)C(=C2C)C3(C)C)cc1 | 1 | 0.5 | 
2 | CC(=O)O[C@H]1C(=O)[C@@]2(C)[C@H]([C@H](OC(=O)c3ccccc3)[C@]3(O)C[C@H](OC(=O)[C@H](O)[C@@H](NC(=O)c4ccccc4)c4ccccc4)C(C)=C1C3(C)C)[C@]1(OC(C)=O)CO[C@@H]1C[C@@H]2O [PACLITAXEL] | 1 | 1 | 
3 | CC(=O)O[C@H]1C(=O)[C@@]2(C)[C@H]([C@H](OC(=O)c3ccccc3)[C@]3(O)C[C@H](OC(=O)[C@H](O)[C@H](NC(=O)c4ccccc4)c4cccc(Cl)c4)C(C)=C1C3(C)C)[C@]1(OC(C)=O)CO[C@@H]1C[C@@H]2O | 6.7 | 4.4 | 
4 | CC(=O)O[C@H]1C(=O)[C@@]2(C)[C@H]([C@H](OC(=O)c3ccccc3)[C@]3(O)C[C@H](OC(=O)[C@H](O)[C@H](NC(=O)c4ccccc4)c4cccc(N(C)C)c4)C(C)=C1C3(C)C)[C@]1(OC(C)=O)CO[C@@H]1C[C@@H]2O | 5.8 | 4.6 | 
5 | CC(=O)O[C@H]1C(=O)[C@@]2(C)[C@H]([C@H](OC(=O)c3ccccc3)[C@]3(O)C[C@H](OC(=O)[C@H](O)[C@H](NC(=O)c4ccccc4)c4ccc(Cl)c(Cl)c4)C(C)=C1C3(C)C)[C@]1(OC(C)=O)CO[C@@H]1C[C@@H]2O | 40 | 7.1 | 
6 | CC(=O)O[C@H]1C(=O)[C@@]2(C)[C@H]([C@H](OC(=O)c3ccccc3)[C@]3(O)C[C@H](OC(=O)[C@H](O)[C@H](NC(=O)c4ccccc4)c4ccc(F)cc4)C(C)=C1C3(C)C)[C@]1(OC(C)=O)CO[C@@H]1C[C@@H]2O | 1.2 | 1.1 | 
7 | CC(=O)O[C@H]1C(=O)[C@@]2(C)[C@H]([C@H](OC(=O)c3ccccc3)[C@]3(O)C[C@H](OC(=O)[C@H](O)[C@H](NC(=O)c4ccccc4)c4ccc(Cl)cc4)C(C)=C1C3(C)C)[C@]1(OC(C)=O)CO[C@@H]1C[C@@H]2O | 2.2 | 1.9 | 
8 | CC(=O)O[C@H]1C(=O)[C@@]2(C)[C@H]([C@H](OC(=O)c3ccccc3)[C@]3(O)C[C@H](OC(=O)[C@H](O)[C@H](NC(=O)c4ccccc4)c4ccccc4C)C(C)=C1C3(C)C)[C@]1(OC(C)=O)CO[C@@H]1C[C@@H]2O | >33 | 5.1 | 
9 | CC(=O)O[C@H]1C(=O)[C@@]2(C)[C@H]([C@H](OC(=O)c3ccccc3)[C@]3(O)C[C@H](OC(=O)[C@H](O)[C@H](NC(=O)c4ccccc4)c4ccc(C)cc4)C(C)=C1C3(C)C)[C@]1(OC(C)=O)CO[C@@H]1C[C@@H]2O | 3 | 2.4 | 
10 | CC(=O)O[C@H]1C(=O)[C@@]2(C)[C@H]([C@H](OC(=O)c3ccccc3)[C@]3(O)C[C@H](OC(=O)[C@H](O)[C@H](NC(=O)c4ccccc4)c4ccc([N+](=O)[O-])cc4)C(C)=C1C3(C)C)[C@]1(OC(C)=O)CO[C@@H]1C[C@@H]2O |  | 1.1 | 35
